Laboratory results reported in PMC5826973 (Frontiers in Pharmacology, 2018).

Key:
[1] = molecular target: T1, CyPJ (Homo sapiens, UniProt Q9H2H8); assay: Surface plasmon resonance (SPR) binding assay; details: Biacore 3000, recombinant human CyPJ immobilized on CM5 chip, 20°C, compounds 0.3–10 μM
T1 construct: made in house
T1 sequence (Q9H2H8 1-161): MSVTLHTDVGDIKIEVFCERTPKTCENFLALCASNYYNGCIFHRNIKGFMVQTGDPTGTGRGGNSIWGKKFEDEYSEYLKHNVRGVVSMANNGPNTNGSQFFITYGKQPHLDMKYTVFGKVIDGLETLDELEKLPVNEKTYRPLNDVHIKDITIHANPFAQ
Description: The binding affinity of the selected compounds to CyPJ was measured by SPR with a Biacore 3000 instrument (Biacore AB Corporation, Uppsala, Sweden) as previously described ([Guo et al., 2005]; [Chen et al., 2007]). Briefly, recombinant human CyPJ protein was immobilized on an activated sensor chip via amine coupling. CyPJ protein (10 μM) was coupled to a CM5 sensor chip surface (a carboxymethylated dextran surface; CM5 chip from Biacore, Inc., Piscataway, NJ, United States) in a buffer containing 10 mM sodium acetate (pH 4.0) using standard amine coupling chemistry according to the manufacturer’s instructions. Flow cell 1 (FC-1) was used as the control surface and flow cell 2 (FC-2) contained 9000 resonance units (RU) of CyPJ (1 RU corresponds to 1 pg of protein per mm^2). The buffer stream was passed through FC-1 and FC-2 of the bi-channel at a flow rate of 40 μl/min. Compounds to be tested were purchased from SPECS (Netherlands). All chemicals were of the highest purity available, as certified by the vendor. All compounds were stocked in 100% dimethylsulfoxide at 10 mM and diluted at graded concentrations (0.3–10 μM) with HBS-EP buffer (0.01 M HEPES buffer, pH 7.4, containing 0.15 M NaCl, 3.4 mM EDTA, and 0.005% surfactant P20) containing 1% dimethylsulfoxide. The temperature of the instrument was set to 20°C, and the flow rate was set to 40 μl/min. Each compound (50 μl) was injected sequentially. NaOH (50 mM) was used to regenerate the surface of the CM5 chip. The 1:1 Langmuir binding model was used to determine the equilibrium dissociation constant (KD). For fast interactions, the steady-state model was used to determine KD values. All experiments were carried out in triplicate.

[2] = molecular target: T2, CyPJ PPIase (Homo sapiens, UniProt Q9H2H8); assay: α-chymotrypsin-coupled PPIase assay; type: biochemical; details: for Compound IC50 for PPIase: CyPJ PPIase, substrate Suc-AAPF-pNA, 8°C, – = no inhibition detectable; for IC50: read-out: Compound IC50 for PPIase
T2 construct: made in house
T2 sequence (Q9H2H8 1-161): T1 sequence (Q9H2H8 1-161)
Description: We used an α-chymotrypsin-coupled PPIase assay, where the substrate succinyl-Ala-Ala-Pro-Phe-p-nitroanilide (Suc-AAPF-pNA) is first converted to the trans conformation by PPIase, and can then be digested by α-chymotrypsin to release chromogenic p-nitroanilide; the latter compound is then monitored with a spectrometer. Briefly, the assay was performed under 8°C in a 100 μl system. The Suc-AAPF-pNA was dissolved in the […] containing 480 mM of LiCl (working concentration: 3.0 mM). The α-chymotrypsin was dissolved in 1 mM HCl (working concentration: […]). When assayed, each test compound was diluted in 94 μl of assay buffer (50 mM HEPES, 100 mM NaCl; pH 8.0 at 0°C), and then mixed with 2 μl of CyPJ solution (5 μM). […] Three independent experiments were performed for each test compound and the respective half maximal inhibitory concentration (IC50) was calculated with OriginPro 7.5 software (OriginLab, Northampton, MA, United States).
The inhibitory effect of each compounds was determined with a standard spectrophotometric method in chymotrypsin-coupled assays with different concentrations of peptide substrate. The rate constants for the cis–trans conversion were evaluated by fitting the data to the integrated first-order rate equation through nonlinear least-square analysis.

[3] = system: SK-HEP1 HCC cells; assay: MTT-based cell proliferation assay, SK-HEP1; parameters: species or system human
Description: (§1) Human HCC cells SK-HEP1 and QGY; breast cancer cells HCC1954, BT474, and MDA-MB468; ovarian cancer cells SKOV3; and prostate cancer cells PC3 and LNCaP were purchased from the Cell Bank of Chinese Academy of Sciences (Shanghai, China), and cultured in T75 flasks with complete DMEM or RPMI 1640 medium (GIBCO, Invitrogen, Gaithersburg, CA, United States) supplemented with 10% FBS (Hyclone, New Zealand), and 1% penicillin/streptomycin (Solarbio, Beijing, China) at 37°C in a humidified atmosphere containing 5% CO2.
(§2) Cell proliferation was determined using methylthiazolyl diphenyl-tetrazolium bromide assay (MTT; Sigma–Aldrich). The cells were seeded onto 96-well plates in a total volume of 150 μl at a density of 3.5 × 10^4 cells/well. […] To avoid the effect of the solvent, the concentration of DMSO was less than 0.1% (v/v) in all experiments. After incubation at 37°C for 48 h, 10 μl of MTT solution (5 mg/ml) was added and continued to incubate for 4 h. Following removal of medium containing MTT, 200 μl of DMSO was added to dissolve the formazan crystals formed by live cells. Solution absorbance was measured at 490 nm with an absorbance microplate reader (BioTek, Winooski, VT, United States). The assay was repeated six times. The IC50 value was determined from plot of % viability against the dose of compounds added.

[4] = system: QGY HCC cells; assay: MTT-based cell proliferation assay, QGY; parameters: species or system human
Description: as §1, §2

[5] = system: HCC1954 breast cancer cells; assay: Growth inhibition, HCC1954; type: cell-based, human
Description: as §1, §2

[6] = system: BT474 breast cancer cells; assay: Growth inhibition, BT474; type: cell-based, human
Description: as §1, §2

[7] = system: MDA-MB-468 breast cancer cells; assay: Growth inhibition, MDA-MB-468; type: cell-based, human
Description: as §1, §2

[8] = system: SKOV3 ovarian cancer cells; assay: Growth inhibition, SKOV3; type: cell-based, human
Description: as §1, §2

[9] = system: PC3 prostate cancer cells; assay: Growth inhibition, PC3; type: cell-based, human
Description: as §1, §2

[10] = system: LNCaP prostate cancer cells; assay: Growth inhibition, LNCaP; type: cell-based, human
Description: as §1, §2

[11] = Table 4, ZX-J-19 derivatives, 48 h

Compound | Kd [1] | IC50 [3, 11] | IC50 [4, 11] | also measured
COc1cc(/C=N/NC(=O)c2cc3c(ccc4ccccc43)o2)ccc1OCc1ccccc1F [ZX-J-17] | 0.0435 µM | – | – | Compound IC50 for PPIase [2]: no inhibition
COc1ccc(CCNC(=O)c2ccc(C(=O)NCCc3ccc(OC)c(OC)c3)nc2)cc1OC [ZX-J-10] | 0.8 µM | – | – | Compound IC50 for PPIase [2]: no inhibition
COc1ccc(NC(=O)c2ccc(COc3ccccc3Br)o2)c(OC)c1 [ZX-J-9] | 1.29 µM | – | – | IC50 [2]: 8.54 ± 0.965 µM
CCOC(=O)c1ccc(NC(=O)c2cc(-c3ccc(C)c(C)c3)nc3ccccc23)cc1 [ZX-J-8] | 14.5 µM | – | – | IC50 [2]: 10.3 ± 0.442 µM
O=C(Nc1ccc2nc(-c3ccccc3)c(-c3ccccc3)nc2c1)c1ccc([N+](=O)[O-])cc1 [ZX-J-19c] | – | – | 37.6 µM | –
O=C(Nc1ccc2nc(-c3ccccc3)c(-c3ccccc3)nc2c1)c1cccc(Cl)c1 [ZX-J-19e] | – | 7.5 µM | 12.3 µM | –
CCCOC(=O)c1ccc(N2C(=O)c3ccc(C(=O)OC(C)C(=O)c4ccc(C)cc4)cc3C2=O)cc1 (stereo not drawn) [ZX-J-16] | 3.41 µM | – | – | IC50 [2]: 18.5 ± 0.727 µM
Cc1cc(NC(=O)C(=O)NCCN2CCN(C(=O)c3ccccc3F)CC2)ccc1Br [ZX-J-18] | 0.242 µM | – | – | Compound IC50 for PPIase [2]: no inhibition
CCC(=O)Nc1ccc2nc(-c3ccccc3)c(-c3ccccc3)nc2c1 [ZX-J-19i] | – | 40.8 µM | – | –
O=C(Nc1ccc2nc(-c3ccccc3)c(-c3ccccc3)nc2c1)c1ccccc1 [ZX-J-19h] | – | 40.3 µM | 27.5 µM | –
O=c1[nH]cc(F)c(=O)[nH]1 [Compound 5-FU, 5-fluorouracil, reference compound] | – | – | – | IC50 ([3]; Homo sapiens, SK-HEP1, Table 2, 48 h): 177.24 ± 0.065 µM; IC50 ([4]; Homo sapiens, Table 2, 48 h): 238.53 ± 0.035 µM
CCCCCCCC(=O)Nc1ccc2nc(-c3ccccc3)c(-c3ccccc3)nc2c1 [ZX-J-19j, N-(2,3-diphenylquinoxalin-6-yl)octanamide] | – | – | – | IC50 ([3]; Homo sapiens, SK-HEP1, Table 4, ZX-J-19 derivatives, 48 h): 6.73 µM; IC50 ([4]; Homo sapiens, Table 4, ZX-J-19 derivatives, 48 h): 12.5 µM; inhibition at 20 µM ([5]; Homo sapiens): 64.2%; inhibition at 20 µM ([6]; Homo sapiens, BT-474): 84%; inhibition at 20 µM ([7]; Homo sapiens): 84.7%; inhibition at 20 µM ([8]; Homo sapiens, SK-OV-3): 48.1%; inhibition at 20 µM ([9]; Homo sapiens): 84.7%; inhibition at 20 µM ([10]; Homo sapiens): 48.1%
CCCCOc1cccc(-c2cc(C(=O)Nc3ccc4c(c3)OCCO4)c3ccccc3n2)c1 [ZX-J-12] | 118 µM | – | – | IC50 [2]: 12.95 ± 0.054 µM
COc1cc(NC(=O)COc2ccc3ccccc3c2)ccc1NC(=O)c1cc2ccccc2o1 [ZX-J-15] | 0.661 µM | – | – | Compound IC50 for PPIase [2]: no inhibition
O=C(Nc1ccc2nc(-c3ccccc3)c(-c3ccccc3)nc2c1)c1ccc(Cl)cc1 [ZX-J-19g] | – | 9.89 µM | 11.3 µM | –
C/C(=N/NC(=O)c1ccc(COc2ccc3c(c2)CCC3)o1)c1ccc(NC(=O)C2CCCC2)cc1 [ZX-J-11] | 0.0988 µM | – | – | IC50 [2]: 19.95 ± 0.025 µM
CC(C)(C)C(=O)Nc1ccc2nc(-c3ccccc3)c(-c3ccccc3)nc2c1 [ZX-J-19b] | – | 21.6 µM | 26 µM | –
O=C(CCl)Nc1ccc2nc(-c3ccccc3)c(-c3ccccc3)nc2c1 [ZX-J-19d] | – | 11.3 µM | 17.9 µM | –
CC(C)OC(=O)c1ccc(NC(=O)c2ccc(COc3ccccc3Cl)o2)cc1 [ZX-J-13] | 0.516 µM | – | – | IC50 [2]: 12.63 ± 0.068 µM

The next lines start with results.

Kd [1] | IC50 [3, 11] | IC50 [4, 11] | Compound | also measured
– | 45.7 µM | – | O=C(Nc1ccc2nc(-c3ccco3)c(-c3ccco3)nc2c1)c1ccccc1Cl [ZX-J-19p] | –
– | 76.7 µM | 82.3 µM | CC(C)(C)C(=O)Nc1ccc2nc(-c3ccco3)c(-c3ccco3)nc2c1 [ZX-J-19m] | –
– | 46.3 µM | 42.5 µM | O=C(Nc1ccc2nc(-c3ccc[nH]3)c(-c3ccc[nH]3)nc2c1)c1ccc(Cl)cc1 [ZX-J-19t] | –
– | 43.6 µM | 44.3 µM | O=C(Nc1ccc2nc(-c3ccco3)c(-c3ccco3)nc2c1)c1ccc([N+](=O)[O-])cc1 [ZX-J-19q] | –
– | 7.53 µM | 199 µM | CC(=O)Nc1ccc2nc(-c3ccccc3)c(-c3ccccc3)nc2c1 [ZX-J-19k] | –
– | 3.51 µM | 21.4 µM | CCCC(=O)Nc1ccc2nc(-c3ccccc3)c(-c3ccccc3)nc2c1 [ZX-J-19l] | % Growth inhibition at 20 μM [5]: 91.258%; % Growth inhibition at 20 μM [6]: 90.963%; % Growth inhibition at 20 μM [7]: 90.849%; % Growth inhibition at 20 μM [8]: 90.919%; % Growth inhibition at 20 μM [9]: 91.039%; % Growth inhibition at 20 μM [10]: 91.038%
– | 140 µM | 127 µM | O=C(CCl)Nc1ccc2nc(-c3ccc[nH]3)c(-c3ccc[nH]3)nc2c1 [ZX-J-19v] | –
– | 17.3 µM | 98.4 µM | CCCCCCCC(=O)Nc1ccc2nc(-c3ccco3)c(-c3ccco3)nc2c1 [ZX-J-19o] | –
– | 18.8 µM | 17.3 µM | O=C(Nc1ccc2nc(-c3ccco3)c(-c3ccco3)nc2c1)c1ccccc1 [ZX-J-19r] | –
– | 14.2 µM | 32.7 µM | CC(=O)Nc1ccc2nc(-c3ccc[nH]3)c(-c3ccc[nH]3)nc2c1 [ZX-J-19u] | –
– | 17.7 µM | 18 µM | CCCC(=O)Nc1ccc2nc(-c3ccco3)c(-c3ccco3)nc2c1 [ZX-J-19n] | –
